The text below walks through data of paper PMC8641662 (Frontiers in Plant Science, 2021).

For one data set, the target named is red clover HDT1 (Trifolium pratense, UniProt A0A384ZRD3). The experiment in a line: Determination of kinetic parameters of HDT (initial rates by release of free CoA, DTNB, purified histidine-tagged HDT1). As to conditions: for kcat / Km: variable acceptor substrate; for Km: pH 8.0, 25°C. The method, then: Kinetic parameters for HDT were determined by measuring initial reaction rates by release of free CoA in real time using DTNB [5,5′-dithio-bis-(2-nitrobenzoic acid)] and spectroscopy as detailed elsewhere ([Sullivan and Bonawitz, 2018]). Measurements were made in a temperature-controlled spectrophotometer at 25°C. Reactions were carried out in 100mM sodium phosphate, 1mM EDTA, pH 8.0. Acceptor substrates were prepared in 1N HCl as 66.7×stock solutions, so an equal amount of 1N NaOH was added to reactions to neutralize the HCl (15mM final). Substrate and enzyme amounts used are detailed in Table 2.
All kinetic data analyses were carried out using GraphPad Prism version 7 or higher for Mac OS (GraphPad Software, La Jolla, CA, United States). Each analysis (i.e., series of substrate concentrations) was carried out in duplicate on different days with freshly prepared substrate and enzyme dilutions. Data were analyzed by non-linear regression of the replicated data. […] Kinetic parameters are reported±standard error (SE) as determined from the non-linear regression.
More limited analyses (explained below) were carried out with L-Phe and L-Leu acceptor substrates.

In a further data set the test system is red clover HDT (HDT1). The data set is described as follows: In vitro hydroxycinnamoyl-CoA transferase activity assay with crude E. coli extracts containing recombinant HDT, products by HPLC with PDA and MS. The class given is biochemical, red clover (Trifolium pratense L.). As to conditions: p-coumaroyl-, caffeoyl- or feruloyl-CoA donor; HPLC with PDA and MS detection. On the procedure:
General in vitro reactions for hydroxycinnamoyl-CoA transferase activity contained 100mM sodium phosphate buffer (pH 7.5), 25 to 50mM ascorbate, 1 to 2mM p-coumaroyl-, caffeoyl-, or feruloyl-CoA donor substrate, 1 to 6mM acceptor substrate (L-amino acids, shikimic acid, or malic acid), and red clover leaf or E. coli extract. When red clover extract was the enzyme source, reaction head space was exchanged for nitrogen to prevent oxidation of caffeoyl and L-DOPA moieties by endogenous PPO. Reactions were incubated at 30°C for up to 1h prior to being stopped by the addition of one-fifth volume of 10% formic acid. Precipitated protein was removed by centrifugation (17,000×g for 5min at room temperature) and the supernatant analyzed for reaction products by HPLC as described above.
Crude E. coli extracts containing the recombinant proteins were incubated with hydroxycinnamoyl-CoAs and acceptors, and the reactions were analyzed by HPLC with PDA and MS detection. […] In the case of caffeoyl-L-Tyr and caffeoyl-L-DOPA, where authentic compound was available for purchase, the in vitro-formed products were indistinguishable from the purchased standards in terms of retention time, UV absorption spectrum, and (m/z). For caffeoyl-L-Tyr, we also produced sufficient compound via an HDT1-mediated reaction to carry out ^1H and ^13C NMR to further confirm product identity (Supplementary Figure S2). Chemical shifts were consistent with those previously published for this compound ([Stark and Hofmann, 2005]). […] We only tested L-amino acids with HDT1, since this is what is present in clovamide and what is most abundantly present in nature. […] In this case, ability of the D-amino acid substrates to serve as acceptor substrates could be due to their structural (including stereochemistry) similarity to the D-phenyllactic acid acceptor also used by this enzyme.

Substrate in data set [1]: N[C@@H](Cc1ccc(O)c(O)c1)C(=O)O
The experiment in a line: purified protein, by the assay type. To be noted: other: variable acceptor substrate, pH 8.0, 25°C.

Substrate in data set [2]: N[C@@H](Cc1ccc(O)cc1)C(=O)O
The experiment in a line: purified protein, by the assay type. To be noted: other: variable acceptor substrate, pH 8.0, 25°C.

Where [3] appears, read: constant substrate FA-CoA (20μM).
Setting [4] is: constant substrate p-CA-CoA (20μM).
Setting [5] is: constant substrate CA-CoA (50μM).

The term kcat denotes the maximal rate divided by the concentration of active sites. As for `N[C@@H](Cc1ccc(O)c(O)c1)C(=O)O` [L-DOPA, L-3,4-dihydroxyphenlylalanine], the kcat at red clover HDT1 (setting [3]) was determined as 0.75 ± 0.015 s⁻¹; at red clover HDT1 (setting [4]), 2.00 ± 0.022 s⁻¹. Also, in the data set with red clover HDT (HDT1), the “Use as acceptor substrate (product formation with hydroxycinnamoyl-CoA donors)” value (shortened to “Use as acceptor substrate”) is listed as “capable of transferring”.
One may read the Km as the concentration of substrate that gives half-maximal velocity. In the case of `CC(C)C[C@H](N)C(=O)O` [L-Leu, L-leucine], the Km at red clover HDT1 (setting [5]) was above 10000 µM. Besides, the “Use as acceptor substrate” value in the data set on red clover HDT (HDT1) is recorded as “can also serve as acceptors”.
For the molecule `N[C@@H](Cc1ccccc1)C(=O)O` [L-Phe, L-phenylalanine], at red clover HDT1 (setting [5]), the Km is above 10000 µM. For the same molecule, the “Use as acceptor substrate” value in the data set on red clover HDT (HDT1) is reported as “capable of transferring”.
Consider `N[C@@H](Cc1c[nH]c2ccccc12)C(=O)O` [L-Trp, L-tryptophan], for which the figures for the catalytic constant (kcat) at red clover HDT1 (setting [5]), on red clover HDT1 (setting [3]) and on red clover HDT1 (setting [4]) were 1.21 ± 0.007 s⁻¹, 0.35 ± 0.007 s⁻¹ and 1.00 ± 0.009 s⁻¹, respectively. In addition, the Km at red clover HDT1 (setting [5]) worked out at 1250 ± 26.7 µM; at red clover HDT1 (setting [3]) it was 273 ± 24.1 µM; on red clover HDT1 (setting [4]), 2160 ± 63.4 µM. Further, the “Use as acceptor substrate” value in the data set on red clover HDT (HDT1) is recorded as “can also serve as acceptors”.
As for `N[C@@H](Cc1ccc(O)cc1)C(=O)O` [L-Tyr, L-tyrosine], at red clover HDT1 (acceptor substrate comparison), the “catalytic efficiency, fold higher compared to L-DOPA as acceptor” value was “about 10 fold”. Further, the “Use as acceptor substrate” value in the data set on red clover HDT (HDT1) is on record as “capable of transferring”.
For the molecule `N=C(N)NCCC[C@H](N)C(=O)O` [arginine], in the data set with red clover HDT (HDT1), the “Use as acceptor substrate” value is reported as “no product was detected”.
On to `O=C(O)CC(O)C(=O)O` (stereo not shown) [malic acid], for which the “Use as acceptor substrate” value in the data set with red clover HDT (HDT1) is listed as “No reaction products were seen”.
On the same count and under the same terms, then `NCCc1ccc(O)cc1` [tyramine], with “no reaction products were seen”.

B1: red clover HDT1 (Trifolium pratense) (protein)
chain: MVTIIASHTVIPEEPTPQGPFWLSDMDQVVRIRDVPTLYIYKTPKKNQENKNIVETFKNSLSKILVHYYPIAGRLCYIEGGRLELNLNAKGAILVEAETEKTMNDYGDFSHFDTIKELVPMIDYNQPIEEIPNFVVQLTNFKNNEGFAIGVAFLHPLSDGLGAIKFINSWAKIARGETLEANELPFLDRKLLKFSHTPLEPRFEHLELKPLPLILGRKDASEEKEKKTSATLLKLSSEQVDKLKKKANEEDVLGIQKKEYSRPYSKFEVISAHIWRCASKARELEDNQESVIRFIADVKNRMIPPLPKNYFGNALTQTATKGYIGEITSKPLGYVAQKIREATELINDEYIRSQIDVVRSFEHLDDARKMFIGEKARYFGNPNFNLTSWLSMPVYEADFGWGKPNYFGLADVSPHDRAVILLSPDDDGSVLVSFHFQIAHMELFNKYFYEEI
By kcat/Km is commonly meant the second-order rate constant that governs catalysis at low substrate concentration. Take B1: the Km in data set [1] (setting [5]) came to 2465.0 ± 65.88 µM; in data set [1] (setting [3]), 150.0 ± 7.65 µM; in data set [1] (setting [4]), 989.8 ± 35.92 µM; in data set [2] (setting [5]) it was 342.0 ± 14.37 µM; in data set [2] (setting [3]) it was 14.4 ± 0.64 µM; in data set [2] (setting [4]), 145.3 ± 5.56 µM. For the same molecule, the values for the kcat in data set [2] (setting [5]), in data set [2] (setting [3]) and in data set [2] (setting [4]) were 9.12 ± 0.114 s⁻¹, 0.69 ± 0.006 s⁻¹ and 2.74 ± 0.027 s⁻¹, respectively. Besides, the kcat/Km amounted to 26700 ± 1170 M⁻¹ s⁻¹ in data set [2] (setting [5]), 47900 ± 2160 M⁻¹ s⁻¹ in data set [2] (setting [3]) and 18900 ± 750 M⁻¹ s⁻¹ in data set [2] (setting [4]).
